Laboratory results from US20080051379A1, “Compositions and Methods for the Treatment of Peripheral B-Cell Neoplasms” (Trustees of Boston University, priority 2004, published 2008).

System: glucocorticoid-sensitive subclone (CEM-S2)
Assay: MTS cell survival assay, CEM-S2
Format: cell-based, human
Details: dexamethasone-sensitive CCRF-CEM cells; 10 μM, 72 hours
Protocol: In FIG. 5A, the polyclonal parental cell line (CCRF-CEM), the single cell-derived glucocorticoid-resistant subclone (CEM-R8) and the single cell-derived glucocorticoid-sensitive subclone (CEM-S2) were cultured for 72 hours in the presence of vehicle (ETOH) or dexamethasone at the concentrations indicated and cell viability was assessed by the MTS assay as described in Methods. In FIG. 5B, the glucocorticoid-resistant subclone (CEM-R8) and the glucocorticoid-sensitive subclone (CEM-S2) were cultured for 72 hours in the presence of hydrocortisone (HC) (10 μM HC for the CEM-R8 cells and 1 μM HC for the CEM-S2 cells), 10 μM forskolin (Fsk), 10 μM rolipram (Rol), or combinations of these agents as indicated, and cell viability was assessed by the MTS assay as described in Methods. FIG. 5C: The glucocorticoid-resistant subclone (CEM-R8) and the glucocorticoid-sensitive subclone (CEM-S2) were cultured for 72 hours in the presence of varying amounts of dibutyryl cAMP (db-cAMP) in the absence (−HC) or presence (+HC) of 1 μM hydrocortisone as indicated, and cell viability was assessed by the MTS assay as described in Methods. The data shown were normalized to the vehicle control. Results represent the mean±SD of triplicate determinations.
CCRF-CEM cells were obtained from ATCC^27. Leukemic or normal mononuclear cells were obtained by centrifugation over Histopaque 1077 (Sigma Chemical Company, St. Louis, Mo.). For purification of T cells, whole mononuclear cells from normal subjects were incubated with magnetic beads coated with appropriate antibodies, then positively purified using a magnet (Miltenyi). […]
Hoechst 33342 and DiOC6(3) apoptosis assays were performed as previously described^22,28. […] The absorbance (O.D.) of the formazan product was determined at 492 nm using a plate reader (Titertek Multiscan Plus, Labsystems). Percent cell viability was calculated as follows: (O.D. control sample−O.D. blank)/(O.D. test sample−O.D. blank)×100. […]

## COc1ccc(C2CNC(=O)C2)cc1OC1CCCC1 (stereo not shown) [rolipram, 4-(3-cyclopentyloxy-4-methoxyphenyl)-2-pyrrolidone]
  effect on cell viability as single agent: no discernable effect
